From patent US20210318306A1, “Compositions for and Methods of Neutralizing Lipopolysaccharide Toxicity and Methods of Identifying the Same” (priority 2020, published 2021)
Several values for one entry are separate records, joined by “and”; a condition that tells them apart may be missing. Identical values can stand only once. Entries after “also recorded” stand apart in the source; their conditions may differ.

Key:
Assay type in all cases: cell-based, human
HEK-Blue hTLR4 cells [1] = experiment: IL-8 dose response in HEK-Blue hTLR4 cells with P.g. LPS 1 μg/ml and 3X-24X dilutions of simple solutions (Example 4)
Protocol: (§1) HEK-Blue hTLR4 cells (Invivogen, cat #hkb-htlr4) were cultured in a DMEM culture medium supplemented with 10% FBS and 1% penstrep at 37° C. with 5% CO2. LPS from Porphyromonas gingivalis (P.g. LPS; Invivogen, cat #tlrl-pglps and cat #tlrl-ppglps) activates TLR4 receptor and downstream inflammation in HEK-Blue hTLR4 cells. P.g. LPS is co-incubated with HEK-Blue hTLR4 cells in the absence or presence of the simple solutions. Standard and ultrapure P.g. LPS were both used due to ultrapure being a specific ligand for the TLR4 receptor while standard LPS is a ligand for both TLR2 and TLR4.
(§2) The simple solutions a) Zinc Oxide (ZnO), b) Zinc Citrate (ZnCitrate), c) Zinc Oxide+Zinc Citrate (Dual Zinc; DZ), d) Dual Zinc+Arginine (DZA, zinc oxide, zinc citrate and arginine), and e) L-Arginine (Arg) were diluted at different concentrations with culture medium.
2) experiments using 3×, 6×, 12×, and 24× dilution fold of the simple solutions (see Table 6 below).
(§3) HEK-Blue hTLR4 cells were plated in 96-well plates and grown until confluent at 37° C. and 5% CO2 in HEK-blue selection media (DMEM with 10% FBS, 1% penicillin-streptomycin, and antibiotics for HEK-blue selection (Invivogen, cat #hb-sel)). Cells were co-incubated overnight with varying concentrations of different zinc actives as well as arginine and stimulated with either 0.1 μg/mL standard P. gingivalis LPS or 1 μg/mL ultrapure P. gingivalis LPS. Cell supernatants were collected for human inflammation cytokine panels using Multiplex and ELISA analysis.
(§4) Multiplex analysis was performed using the MILLIPLEX MAP Human Cytokine/Chemokine Magnetic Bead Panel—Immunology Multiplex Assay for IL-1, IL-6, IL-8, TNFα, and GM-CSF (Millipore Sigma, cat #HCYTOMAG-60K).
In order to understand the role of Arginine in the inhibition of LPS induced inflammation, a dose response experiment was performed using ultrapure P.g. LPS, which only specifically targets TLR4 receptor, in order to maximize the activation of NF-kB and expression of IL-8.
The testing samples were prepared as the stock simple solutions. […] The first serial dilution was made 3 times with water, a dilution factor simulating dilution of toothpastes while brushing. Additional serial dilutions were made by 2-fold of the first dilution to study dose response effect.

HEK-TLR4 cells = experiment: P. gingivalis LPS-induced cytokine secretion by HEK-TLR4 cells, Luminex 5-plex magnetic bead panel (Example 2)
Protocol: Commercially available HEK-Blue TLR4 cells (Invitrogen) are recombinant HEK 293 cells that have been transformed with DNA that encodes TLR4 that is expressed and present on the cell surface. HEK-Blue TLR4 cells are grown ion culture and used can be used in experimental assays to identify test compositions that modulate inflammation pathways stimulated by TLR4-LPS interaction.
Initial for LPS and zinc-containing starting solutions were made as follows. An LPS starting solution was prepared as follows: a […] solution of LPS was prepared using 2 μl of 1 mg/ml LPS and 10 ml media. Multiple zinc starting solutions were each prepared using media as diluent: a) 20 mM zinc oxide, b) 2 mM zinc oxide, c) 20 mM zinc citrate, d) 2 mM zinc citrate, e) 20 mM of a composition containing a 2:1 mixture of zinc oxide and zinc citrate and f) 2 mM of a composition containing a 2:1 mixture of zinc oxide and zinc citrate. The starting solutions were used to prepare various test samples.
In some embodiments, control assays include “Untreated”, in which eight Zinc test samples without LPS were made: […], 10 mM zinc oxide+zinc citrate, 1 mM zinc oxide+zinc citrate, 10 mM zinc oxide+zinc citrate+arginine and 1 mM zinc oxide+zinc citrate+arginine, The test samples without LPS were prepared by diluting the zinc starting solutions with equal parts media. Eight test samples with LPS were made: […], […], […], […], 10 mM zinc oxide+zinc citrate LPS, 1 mM zinc oxide+zinc citrate LPS, 10 mM zinc oxide+zinc citrate+arginine LPS and 1 mM zinc oxide+zinc citrate+arginine LPS. The test samples with LPS were prepared by diluting the zinc starting solutions with equal parts LPS starting solution.
Cells were grown to 70-80% confluent in a 96 well plate. 100 uL of a test sample was added to a well. Cells with test sample were incubated overnight. Media was collected from each well and transferred to a corresponding well in a 96-well plate. Assays to measure proinflammatory cytokines including IL-8 secretion were performed for each well.
Inflammation markers in supernatants collected from HEK-Blue cells co-incubated with Zinc and Zinc+LPS were quantified using Luminex Magpix instrument (MAGPIX-XPON42) and human 5-plex cytokine/chemokine Magnetic bead panel (Millipore HCYTOMAG-60K). The human 5-plex cytokine/chemokine Magnetic bead panel quantifies TNF-α, IL-6, IL-8, IL-1β and GM-CSF.
The Luminex Kit Procedure outlined in the instruction manual for each separate Luminex kit was performed on the supernatants collected from the HEK-Blue cells co-incubated with Zinc test solutions without LPS and Zinc test solutions plus LPS. Quality controls in range for the specified analytes were performed to ensure levels were within the acceptable range.
To run the Luminex Test, all necessary calibration and verification procedures as outlined by the MagPix and xPonent softwares were completed and the appropriate protocol for the assay was selected. The standards were verified to be correct and complete the plate layout of samples was verified. […] The “Avg. Result” was identified in the results generated.
Experiments were conducted to identify compositions that inhibit P. gingivalis LPS-induced IL-8, TNFα, GM-CSF, IL-1β and IL-6 by HEK-TLR4 cells. HEK-TLR4 cells in 96 well plates were contacted with 100 μl samples. IL-8, TNFα, GM-CSF, IL-1β and IL-6 were detected as described above.

HEK-Blue hTLR4 cells [2] = experiment: IL-8 in HEK-Blue hTLR4 cell supernatants with standard P.g. LPS and simple solutions at 1 mM vs 10 mM total zinc (Example 4); settings: for IL-8 Concentration, replicate: listed as ZnCitrate
Protocol: as §1, §2
1) experiments using 1 mM vs 10 mM total zinc; and
as §3, §4
Testing was performed using total zinc concentrations to normalize the amount the zinc applied in the cell culture medium during co-incubation. Two concentrations of total zinc ion are based on the potential amount of zinc retained on the mouth soft tissue surface.

[3] = 3X dilution of stock simple solution (Table 6) with P.g. LPS (1 μg/ml)
[4] = 6X dilution of stock simple solution (Table 6) with P.g. LPS (1 μg/ml)
[5] = 12X dilution of stock simple solution (Table 6) with P.g. LPS (1 μg/ml)
[6] = 24X dilution of stock simple solution (Table 6) with P.g. LPS (1 μg/ml)
[7] = 300 ppm with 0.1μ/ml P. gingivalis LPS
[8] = 600 ppm with 0.1μ/ml P. gingivalis LPS
[9] = P. gingivalis LPS, 300 and 600 ppm, listed as zinc citrate
[10] = 1 mM total zinc with standard P.g. LPS (0.1 μg/ml)
[11] = 10 mM total zinc with standard P.g. LPS (0.1 μg/ml)

## N=C(N)NCCC[C@H](N)C(=O)O [Arg, L-Arginine]
HEK-Blue hTLR4 cells [1]; [3]
  IL-8 Concentration, Average: 236.6 pg/mL
  IL-8 Concentration, replicate: 248.5 pg/mL and 224.7 pg/mL
HEK-Blue hTLR4 cells [1]; [4]
  IL-8 Concentration, Average: 1480.7 pg/mL
  IL-8 Concentration, replicate: 1649.9 pg/mL and 1311.5 pg/mL
HEK-Blue hTLR4 cells [1]; [5]
  IL-8 Concentration, Average: 2903.3 pg/mL
  IL-8 Concentration, replicate: 2891.2 pg/mL and 2915.5 pg/mL
HEK-Blue hTLR4 cells [1]; [6]
  IL-8 Concentration, Average: 3020.6 pg/mL
  IL-8 Concentration, replicate: 3003.8 pg/mL and 3037.4 pg/mL
HEK-Blue hTLR4 cells [1]; at 3 times dilution of the stock simple solution
  inhibition of IL-8 (in words): strong inhibition
HEK-Blue hTLR4 cells [1]; when dilution folds increase
  inhibition of IL-8 (in words): lose the inhibition of IL-8 gradually

## O=C([O-])CC(O)(CC(=O)[O-])C(=O)[O-].O=C([O-])CC(O)(CC(=O)[O-])C(=O)[O-].[Zn+2].[Zn+2].[Zn+2] [ZnC, zinc citrate]
HEK-TLR4 cells; [7]
  GM-CSF (raw data, single replicate): <3.2 pg/ml (3×) and 0.633 pg/ml
  IL-1β (raw data, single replicate): 0.4044 pg/mL and 0.5186 pg/mL and 0.1227 pg/mL and 1.331 pg/mL
  IL-6 (raw data, single replicate): <3.2 pg/ml (3×) and 0.5932 pg/ml
  IL-8 (average result): 395.2 pg/mL
  IL-8 (raw data, single replicate): 364.5 pg/mL and 386.8 pg/mL and 285.4 pg/mL and 544.1 pg/mL
  TNF-α (average result): 3.857 pg/mL
  TNFα (raw data, single replicate): 3.113 pg/mL and 2.696 pg/mL and 2.325 pg/mL and 7.294 pg/mL
HEK-TLR4 cells; 300 ppm, without LPS
  GM-CSF (raw data, single replicate): <3.2 pg/mL
  IL-1β (raw data, single replicate): 0.01381 pg/mL and 0.1227 pg/mL and 0.2344 pg/mL and 0.4044 pg/mL
  IL-6 (raw data, single replicate): <3.2 pg/mL
  IL-8 (average result): 294 pg/mL
  IL-8 (raw data, single replicate): 254.6 pg/mL and 237.5 pg/mL and 296.9 pg/mL and 386.9 pg/mL
  TNF-α (average result): 1.616 pg/mL
  TNFα (raw data, single replicate): 1.244 pg/mL and 1.675 pg/mL and 1.373 pg/mL and 2.173 pg/mL
HEK-TLR4 cells; [8]
  GM-CSF (raw data, single replicate): <3.2 pg/mL
  IL-1β (raw data, single replicate): 0.6335 pg/ml and 0.1227 pg/ml (2×) and 0.2344 pg/ml
  IL-6 (raw data, single replicate): <3.2 pg/mL
  IL-8 (average result): 326.3 pg/mL
  IL-8 (raw data, single replicate): 447.3 pg/mL and 287.8 pg/mL and 291.5 pg/mL and 278.6 pg/mL
  TNF-α (average result): 1.596 pg/mL
  TNFα (raw data, single replicate): 2.587 pg/mL and 1.416 pg/mL and 1.266 pg/mL and 1.116 pg/mL
HEK-TLR4 cells; 600 ppm, without LPS
  GM-CSF (raw data, single replicate): 0.1483 pg/ml and 0.07253 pg/ml and <3.2 pg/ml (2×)
  IL-1β (raw data, single replicate): 0.9228 pg/mL and 0.2908 pg/mL and 0.01381 pg/mL and 0.1227 pg/mL
  IL-6 (raw data, single replicate): 0.3248 pg/ml and <3.2 pg/ml (3×)
  IL-8 (average result): 293.9 pg/mL
  IL-8 (raw data, single replicate): 434.5 pg/mL and 262.1 pg/mL and 234.6 pg/mL and 244.6 pg/mL
  TNF-α (average result): 1.172 pg/mL
  TNFα (raw data, single replicate): 2.064 pg/mL and 1.073 pg/mL and 0.6069 pg/mL and 0.9454 pg/mL
HEK-TLR4 cells; P. gingivalis LPS, 300 and 600 ppm, listed as Zinc citrate
  effect on LPS-induced TNFα (in words): more profound inhibition
HEK-TLR4 cells; [9]
  effect on LPS-induced TNFα (in words): significantly reduced
  effect on induction of IL-8 by LPS (in words): significantly reduced; also recorded: profound inhibition
HEK-Blue hTLR4 cells [2]; [10]
  IL-8 Concentration, Average: 34.9 pg/mL
  IL-8 Concentration, replicate: 55.35 pg/mL and 27.95 pg/mL and 26.65 pg/mL and 29.55 pg/mL
HEK-Blue hTLR4 cells [2]; [11]
  IL-8 Concentration, Average: 10.6 pg/mL
  IL-8 Concentration, replicate: 11.85 pg/ml (2×) and 3.15 pg/ml
HEK-Blue hTLR4 cells [2]; at both 1 mM and 10 mM
  IL-8 induced by co-incubation with P.g. LPS (in words): reduced
HEK-Blue hTLR4 cells [1]; [3]
  IL-8 Concentration, Average: 32.1 pg/mL
HEK-Blue hTLR4 cells [1]; 3X dilution of stock simple solution (Table 6) with P.g. LPS (1 μg/ml), listed as ZnCitrate
  IL-8 Concentration, replicate: 35.4 pg/mL and 28.9 pg/mL
HEK-Blue hTLR4 cells [1]; [4]
  IL-8 Concentration, Average: 38.0 pg/mL
HEK-Blue hTLR4 cells [1]; 6X dilution of stock simple solution (Table 6) with P.g. LPS (1 μg/ml), listed as ZnCitrate
  IL-8 Concentration, replicate: 38.1 pg/mL and 37.9 pg/mL
HEK-Blue hTLR4 cells [1]; [5]
  IL-8 Concentration, Average: 51.9 pg/mL
HEK-Blue hTLR4 cells [1]; 12X dilution of stock simple solution (Table 6) with P.g. LPS (1 μg/ml), listed as ZnCitrate
  IL-8 Concentration, replicate: 55.6 pg/mL and 48.1 pg/mL
HEK-Blue hTLR4 cells [1]; [6]
  IL-8 Concentration, Average: 86.6 pg/mL
HEK-Blue hTLR4 cells [1]; 24X dilution of stock simple solution (Table 6) with P.g. LPS (1 μg/ml), listed as ZnCitrate
  IL-8 Concentration, replicate: 88.5 pg/mL and 84.8 pg/mL
